Experimental data reported in patent US5686486A, “4-hydroxy-benzopyran-2-ones and 4-hydroxy-cycloalkyl[b]pyran-2-ones useful to treat retroviral infections” (priority 1995, dated 1997).
“And” between values parts separate entries of the source, which are not always exact repeats. Equal values may be shown once.

Assays:
[1] = molecular target: T1, HIV-1 protease (Human immunodeficiency virus type 1 group M subtype B, UniProt P04585); test: biochemical; conditions: for inhibition at 0.123 µM: read-out: HIV-1 Protease % Inhib, dose 0.123 uM; for inhibition at 0.37 µM: read-out: HIV-1 Protease % Inhib, dose 0.370 uM; for inhibition at 1.1 µM: read-out: HIV-1 Protease % Inhib, dose 1.100 uM; for inhibition at 3.3 µM: read-out: HIV-1 Protease % Inhib, dose 3.300 uM; for inhibition at 10 µM: read-out: HIV-1 Protease % Inhib, dose 10.000 uM; for inhibition at 30 µM: read-out: HIV-1 Protease % Inhib, dose 30.000 uM
Procedure, shortened: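 Biotinylated, FITC-labeled peptide substrate (20 μl of 0.2 μM) incubated with HIV-1 protease (10 μl of 0.1 μM) and compound in 0.1 M sodium acetate pH 5.5, 1.0 M NaCl, 0.05% NP-40, 1 h, room temperature, dark. Streptavidin beads then capture uncleaved substrate; filtered labeled product read by fluorescence, giving percent inhibition.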

[2] = molecular target: T1, HIV-1 protease; test: biochemical; conditions: read-out: HIV-1 FITC KI
Procedure, shortened: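 Ki from two-fold serial inhibitor dilutions (24–48 concentrations) with 40 nM HIV-1 protease stock and 200 μM substrate stock, 90 min at room temperature; stopped with avidin beads. Reference inhibitor run in parallel; Ki by nonlinear least-squares fit.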

SMILES | inhibition at 0.123 µM [1] [%] | inhibition at 0.37 µM [1] [%] | inhibition at 1.1 µM [1] [%] | inhibition at 3.3 µM [1] [%] | inhibition at 10 µM [1] [%] | inhibition at 30 µM [1] [%] | Ki [2]
O=c1oc2c(c(O)c1C(c1cccc(NS(=O)(=O)c3cccnc3)c1)C1CC1)CCCCCC2 (stereo not shown) [Example 314, N-[3-[Cyclopropyl(5,6,7,8,9,10-hexahydro-4-hydroxy-2-oxo-2H-cylcloocta[b]pyran-3-yl)methyl]phenyl]-3-pyridinesulfonamide] | 79.5 | 97.7 | 108 | 109 | 102 | 97.1 | 2.31 nM and 2.01 nM
Cc1cncc(S(=O)(=O)Nc2cccc(C(c3c(O)c4c(oc3=O)CCCCCC4)C3CC3)c2)c1 (stereo not shown) [Example 315, N-[3-[Cyclopropyl(5,6,7,8,9,10-hexahydro4-hydroxy-2-oxo-2H-cycloocta[b]pyran-3-yl)methyl]phenyl]-5-methyl-3-pyridinesulfonamide] | 80.7 | 94.7 | 91.9 | 95.2 | 86.7 | 81.4 | 2.58 nM
C=CS(=O)(=O)Nc1cccc(C(c2c(O)c3c(oc2=O)CCCCCC3)C2CC2)c1 (stereo not shown) [Example 316, N-[3-[Cycloproopyl(5,6,7,8,9,10-hexahydro4-hydroxy-2-oxo-2H-cycloocta[b]pyran-3-yl)methyl]phenyl]-ethenesulfonamide] |  | 31.2 | 77.8 | 98.1 | 103 | 111 | 18 nM
CCS(=O)(=O)Nc1cccc(C(c2c(O)c3c(oc2=O)CCCCCC3)C2CC2)c1 (stereo not shown) [Example 318, N-[3-[Cyclopropyl(5,6,7,8,9,10-hexahydro-4-hydroxy-2-oxo-2H-cycloocta[b]pyran-3-yl)methyl]phenyl]-ethanesulfonamide] | 28.3 | 45.1 | 84.2 | 99.7 | 97.5 | 106 | 9.9 nM
O=c1oc2c(c(O)c1C(c1cccc(NS(=O)(=O)c3ccccc3)c1)C1CC1)CCCCCC2 (stereo not shown) [Example 319, N-[3-[Cyclopropyl(5,6,7,8,9,10-hexahydro-4-hydroxy-2-oxo-2H-cycloocta[b]pyran-3-yl)methyl]phenyl]-benzenesulfonamide] | 67 | 84.2 | 93.1 | 94.3 | 102 | 101 | 4.3 nM and 3.3 nM and 2.1 nM
O=c1oc2c(c(O)c1C(c1cccc(NS(=O)(=O)C=Cc3ccccc3)c1)C1CC1)CCCCCC2 (stereo not shown) [Example 320, N-[3-[Cyclopropyl(5,6,7,8,9,10-hexahydro-4-hydroxy-2-oxo-2H-cycloocta[b]pyran-3-yl)methyl]phenyl]-2-phenyl-ethenesulfonamide] | 66.4 | 78.5 | 98.2 | 102 | 99.3 | 99 | 3.8 nM and 2.1 nM
O=c1oc2c(c(O)c1C(c1cccc(NS(=O)(=O)Cc3ccccc3)c1)C1CC1)CCCCCC2 (stereo not shown) [Example 321, N-[3-[Cyclopropyl(5,6,7,8,9,10-hexahydro-4-hydroxy-2-oxo-2H-cycloocta[b]pyran-3-yl)methyl]phenyl]-benzenemethanesulfonamide] | 22.2 | 62.1 | 100 | 113 | 119 | 118 | 13.2 nM
CCCS(=O)(=O)Nc1cccc(C(c2c(O)c3c(oc2=O)CCCCCC3)C2CC2)c1 (stereo not shown) [Example 324, N-[3-[Cyclopropyl(5,6,7,8,9,10-hexahydro-4-hydroxy-2-oxo-2H-cycloocta[b]pyran-3-yl)methyl]phenyl]-1-propanesulfonamide] | 44.3 | 87.5 | 103 | 108 | 116 | 117 | 4 nM
O=C1c2ccccc2C(=O)N1CCS(=O)(=O)Nc1cccc(C(c2c(O)c3c(oc2=O)CCCCCC3)C2CC2)c1 (stereo not shown) [Example 327, N-[3-[Cyclopropyl(5,6,7,8,9,10-hexahydro-4-hydroxy-2-oxo-2H-cycloocta[b]pyran-3-yl)methyl]phenyl]-1,3-dihydro-1,3-dioxo-2H-isoindole-2-ethanesulfonamide] | 34.2 | 68.2 | 94.8 | 105 | 106 | 113 | 13.5 nM
O=c1oc2c(c(O)c1C(c1cccc(NS(=O)(=O)CCCCl)c1)C1CC1)CCCCCC2 (stereo not shown) [Example 331, 3-Chloro-N-[3-[cyclopropyl(5,6,7,8,9,10-hexahydro-4-hydroxy-2-oxo-2H-cycloocta[b]pyran-3-yl)methyl]phenyl]-1-propanesulfonamide] | 66.4 | 86.9 | 99.2 | 119 | 121 | 105 | 4.8 nM
O=c1oc2c(c(O)c1C(c1cccc(NS(=O)(=O)c3cc(C(F)(F)F)cc(C(F)(F)F)c3)c1)C1CC1)CCCCCC2 (stereo not shown) [Example 332, N-[3-[Cyclopropyl(5,6,7,8,9,10-hexahydro-4-hydroxy-2-oxo-2H-cycloocta[b]pyran-3-yl)methyl]phenyl]-3,5-bis(trifluoromethyl)-benzenesulfonamide] | 23.1 | 39.3 | 71.5 | 94 | 109 | 115 | 47 nM
CC1(C)C2CCC1(CS(=O)(=O)Nc1cccc(C(c3c(O)c4c(oc3=O)CCCCCC4)C3CC3)c1)C(=O)C2 (stereo not shown) [Example 333, N-[3-[Cyclopropyl(5,6,7,8,9,10-hexahydro-4-hydroxy-2-oxo-2H-cycloocta[b]pyran-3-yl)methyl]phenyl]-7,7-dimethyl-2-oxo-bicyclo[2.2.1]heptane-1-methanesulfonamide] |  | 28.3 | 62.2 | 82 | 102 | 110 | 104 nM
COc1cccc(Br)c1S(=O)(=O)Nc1cccc(C(c2c(O)c3c(oc2=O)CCCCCC3)C2CC2)c1 (stereo not shown) [Example 337, 2-Bromo-N-[3-[cyclopropyl(5,6,7,8,9,10-hexahydro-4-hydroxy-2-oxo-2H-cycloocta[b]pyran-3-yl)methyl]phenyl]-6-methoxy-benzenesulfonamide] | 10.1 | 47.9 | 93.6 | 116 | 111 | 112 | 37.9 nM
Cc1noc(C)c1S(=O)(=O)Nc1cccc(C(c2c(O)c3c(oc2=O)CCCCCC3)C2CC2)c1 (stereo not shown) [Example 338, N-[3-[Cyclopropyl(5,6,7,8,9,10-hexahydro-4-hydroxy-2-oxo-2H-cycloocta[b]pyran-3-yl)methyl]phenyl]-3,5-dimethyl-4-isoxazolesulfonamide] | 39.1 | 80.1 | 86.3 | 96.8 | 102 | 100 | 9.8 nM
O=c1oc2c(c(O)c1C(c1cccc(NS(=O)(=O)c3cccc4nsnc34)c1)C1CC1)CCCCCC2 (stereo not shown) [Example 340, N-[3-[Cyclopropyl(5,6,7,8,9,10-hexahydro-4-hydroxy-2-oxo-2H-cycloocta[b]pyran-3-yl)methyl]phenyl]-2,1,3-benzothiadiazole-4-sulfonamide] | 77.8 | 93.2 | 90.9 | 96.5 | 101 | 96.5 | 1.9 nM
CCc1ccc(S(=O)(=O)Nc2cccc(C(c3c(O)c4c(oc3=O)CCCCCC4)C3CC3)c2)cc1 (stereo not shown) [Example 341, N-[3-[Cyclopropyl(5,6,7,8,9,10-hexahydro-4-hydroxy-2-oxo-2H-cycloocta[b]pyran-3-yl)methyl]phenyl]-4-ethyl-benzenesulfonamide] | 59.4 | 92.8 | 110 | 107 | 120 | 122 | 5 nM
CCCCCCCCS(=O)(=O)Nc1cccc(C(c2c(O)c3c(oc2=O)CCCCCC3)C2CC2)c1 (stereo not shown) [Example 343, N-[3-[Cyclopropyl(5,6,7,8,9,10-hexahydro-4-hydroxy-2-oxo-2H-cycloocta[b]pyran-3-yl)methyl]phenyl]-1-octanesulfonamide] | 39.4 | 75 | 91.2 | 104 | 112 | 105 | 6 nM
O=c1oc2c(c(O)c1C(c1cccc(NS(=O)(=O)CCc3ccccc3)c1)C1CC1)CCCCCC2 (stereo not shown) [Example 346, N-[3-[Cyclopropyl(5,6,7,8,9,10-hexahydro-4-hydroxy-2-oxo-2H-cycloocta[b]pyran-3-yl)methyl]phenyl]-benzeneethanesulfonamide] | 75.1 | 92.5 | 97.3 | 102 | 103 | 97 | 3.85 nM
